Reference: article PMC4047407 (The Journal of Biological Chemistry, 2014)
Where a SMILES comes first, the peptide text is derived from it. Bridges are numbered along the chain shown (N, C = ends).

What was measured:
[1] = target: T1, M. sexta V-ATPase (Manduca sexta, UniProt P31403); test: V-ATPase assay, detection of released phosphate, purified V1Vo holoenzyme; format: biochemical; conditions: Fig. 5, read-out: apparent Ki, inhibition of M. sexta V-ATPase
T1 construct: The M. sexta V1Vo holoenzyme was extracted and purified as described previously; from tissue
T1 sequence (P31403 whole entry): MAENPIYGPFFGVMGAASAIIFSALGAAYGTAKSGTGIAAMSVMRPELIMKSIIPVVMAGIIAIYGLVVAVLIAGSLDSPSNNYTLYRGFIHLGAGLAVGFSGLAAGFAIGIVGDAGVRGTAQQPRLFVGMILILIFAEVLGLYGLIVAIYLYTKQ
Procedure: (§1) S. oryzae strains WAA42 and ISOR3 were reared according to Louis et al. ([25]). […] PA1b labeling using ^125I and binding assays using the ^125I toxin were performed according to Ref. [22], and binding data were analyzed using the SIMFIT software. Fifth instar larvae of M. sexta (Lepidoptera, Sphingidae), weighing 6–8 g, were reared under long day conditions (16 h of light) at 27 °C using the gypsy moth diet (MP Biomedicals).
(§2) V-ATPase assays based on the detection of released phosphate using the M. sexta V-ATPase or yeast vacuolar membranes were carried out as reported previously ([23], [28], [29]).
(§3) FIGURE 5. Inhibition of yeast V-ATPase activity. […] For comparison, inhibition of the purified V1Vo holoenzyme of M. sexta (squares) by PA1b is included.

[2] = system: crude membrane extract of S. oryzae (PA1b binding site); design: species or system Sitophilus oryzae; conditions: WAA42 membrane extracts; bafilomycin up to 10 μM; data not shown
[3] = target: V-ATPase from wild type S. cerevisiae strain BMA64-1B (Saccharomyces cerevisiae, UniProt P23968+P25515+P32842); test: V-ATPase assay on yeast vacuolar membranes, wild type strain; format: biochemical; conditions: Fig. 5, read-out: Ki, inhibition of V-ATPase activity
Procedure: as §2, §3

[4] = system: S. oryzae strain WAA42; test: Weevil toxicity bioassay, inhibitor in the food, PA1b-sensitive strain; format: in vivo, Sitophilus oryzae; conditions: 30 weevils, artificial diet over 14 days
Procedure: as §1
(§4) FIGURE 6. […] 30 rice weevils (S. oryzae) were fed on artificial diet incorporating each tested compound over 14 days. The weevil strains were WAA42 (PA1b-sensitive strain: open symbols) and ISOR3 (PA1b-resistant strain: filled symbols). […] Open diamonds/dashed line, control for artificial diet with bafilomycin solvent.

[5] = system: S. oryzae strain ISOR3; test: Weevil toxicity bioassay, inhibitor in the food, PA1b-resistant strain; format: in vivo, Sitophilus oryzae; conditions: 30 weevils; for Mortality: 14 days
Procedure: as §1, §4

Structure (SMILES) | Ki [1] [nM] | Inhibition of binding of radiolabeled PA1b by bafilomycin [2] | Ki [3] [nM] | TL50 ([4]; bafilomycin 0.36 mg/g of food) [days] | TL50 ([4]; bafilomycin 0.60 mg/g of food) [days] | TL50 ([4]; bafilomycin 2.0 mg/g food) [days] | Mortality ([5]; bafilomycin 0.36 mg/g of food) | Mortality ([5]; bafilomycin 0.60 mg/g of food) | TL50 ([5]; bafilomycin 2.0 mg/g food, artificial diet over 14 days) [days]
CC[C@H](C)[C@@H]1NC(=O)[C@H](C(C)C)NC(=O)[C@H](CC(C)C)NC(=O)CNC(=O)[C@H](C(C)C)NC(=O)[C@@H]2CCCN2C(=O)[C@H]([C@@H](C)CC)NC(=O)[C@@H]2CSSC[C@@H]3NC(=O)[C@H](C(C)C)NC(=O)CNC(=O)[C@H](CC(N)=O)NC(=O)[C@@H](NC(=O)[C@H](CO)NC(=O)[C@H](C)N)CSSC[C@H](NC(=O)[C@H](C)NC(=O)[C@H](CO)NC(=O)[C@H]([C@@H](C)O)NC(=O)CNC(=O)[C@H](CSSC[C@@H](C(=O)N[C@@H](CCCNC(=N)N)C(=O)N[C@@H](CC(N)=O)C(=O)N4CCC[C@H]4C(=O)N[C@@H](CO)C(=O)NCC(=O)O)NC(=O)[C@H](Cc4ccc(O)cc4)NC(=O)CNC1=O)NC(=O)[C@@H]1CCCN1C(=O)[C@@H]1CCCN1C(=O)[C@H](CCSC)NC(=O)[C@H](CCC(=O)O)NC(=O)[C@H](Cc1ccccc1)NC(=O)[C@@H]1CCCN1C(=O)[C@H](CO)NC3=O)C(=O)N[C@@H](CCCNC(=N)N)C(=O)N2 [PA1b, pea albumin 1 subunit b] (H-ASCNGVCSPFEMPPCGTSACRCIPVGLVIGYCRNPSG-OH; disulfide 3-20, 7-22, 15-32) | ~91 | – | – | – | – | – | – | – | –
CO/C1=C\C(C)=C\[C@@H](C)[C@@H](O)[C@@H](C)C/C(C)=C/C=C/[C@H](OC)[C@@H]([C@@H](C)[C@@H](O)[C@H](C)[C@@]2(O)C[C@@H](O)[C@H](C)[C@@H](C(C)C)O2)OC1=O [bafilomycin, bafilomycin A1] | – | unable to inhibit | ~2.4 | 12.6 ± 2.3 | 9.4 ± 1 | 4.0 ± 0.2 | no mortality | no mortality | 9.9 ± 0.5
